Tests used:
Format in all cases: in vivo, C57 mice
[1] = system: bleomycin-induced mouse lung disease model; test: Lung and spleen coefficients, 24-h modeling; details: Dex 1-1.5 mg/kg i.p. every two days
Method: (§1) Animals of 24-h modeling were randomly divided into 5 groups according to the table below, 3 animals per control group and 5 animals per test group.
(§2) Drug administration began 24 h or 7 d after modeling. […] The day of the first administration was counted as D1, the next day as D2, and so forth. The normal groups and Model groups were given 200 µL of normal saline daily by gavage administration.
Method: after being euthanized, the animals were dissected, and the heart, liver, spleen, lung and kidney were weighed.
(§3) In this experiment, 105 C57 mice were randomly selected and subjected to organ drip administration of a single dose of bleomycin at 2.5 mg/kg for 24 h or 7 d for induction. After 7 days of induction, 3 model mice were randomly selected and dissected to determine whether the modeling was successful. After modeling, the survival of the mice was recorded. The living states of the mice were observed and their body weight was measured at a fixed time.
(§4) A normal control group comprised 3 mice.

[2] = system: bleomycin-induced mouse lung disease model; test: Blood gas analysis, 7-d modeling; details: Dex 1-1.5 mg/kg i.p. every two days, arterial blood after administration ended
Method: (§5) Animals of 7-d modeling were randomly divided into 7 groups according to the table below, 6 animals per control group and 12 animals per test group.
as §2
(§6) 1. After being anaesthetized, a mouse was fixed to a board in a supine position.
(§7) 2. After the skin was disinfected with alcohol, a midline cut of about 1.5 cm was made downward in the skin of the neck. The connective tissue between the sternohyoid muscle and the stemothyroid muscle was separated along the anterior border of the sternomastoid muscle with a tissue forceps. The pulsating common carotid artery could be seen on the deep right side of the trachea. A common carotid artery of about 1.5 cm in length was separated. The distal end was ligated with silk thread, and the proximal end was clipped with an artery clip and threaded with a silk thread for later use. The mouse board was placed under a dissecting microscope, and a V-shaped centripetal incision was gently made in a site near the distal end of the artery with a microscopy scissor. A PE microcatheter was inserted into the artery and fixed by making a knot with silk thread. The artery clip was removed, and 0.1-0.2 mL of blood was collected with a 1 mL syringe. The proximal end was clipped with an artery clip, and the syringe was removed. The blood was immediately analyzed on an AbboTTi-STAT blood gas microanalyzer.
(§8) In a blood gas analysis, the H^+ concentration in the blood and gases (mainly CO2 and O2) dissolved in the blood can be determined to directly reflect the function of pulmonary ventilation and the acid-base balance state. They are used to determine in the organism whether the acid-base balance is upset, whether anoxia occurred, the level of anoxia, and so forth.

[3] = Body weight, bleomycin-induced mice, 24-h modeling; details: Dex 1-1.5 mg/kg i.p. every two days
Method: as §1, §2
All the animals were observed once daily during the experiment for death or dying, feces, ingestion, mental state and behavior and activity. Abnormalities were recorded in time. All the animals were weighed once before grouping and once before each dose.
as §3, §4

[4] = system: cytokines in bronchoalveolar lavage fluid; test: Inflammatory factor assay of bronchoalveolar lavage fluid by ELISA; details: Dex 1-1.5 mg/kg i.p. every two days
Method: as §5, §2
After the mouse was fixed, its trachea and chest cavity were exposed, and the trachea and the esophagus were bluntly separated with an ophthalmic curved forceps. Two sutures were made between the trachea and the esophagus. An intravenous trocar was inserted into the trachea and ligated at the site where it entered the trachea and at its distal end. A 1 mL syringe was connected to draw in 1 mL of pre-cooled PBS and infuse it into the lung tissue. Significant filling in the lung could be seen with the naked eye. The infusion was stopped for 10 s and withdrawal was performed. The infusion/withdrawal cycle was repeated 3 times. The withdrawn BALF was transferred to a clean EP tube and centrifuged at 4° C., and the supernatant was collected and preserved at -80° C. The bronchoalveolar lavage fluid was assayed for inflammatory factors by ELISA.

[5] = system: bleomycin-induced mouse lung disease model; test: Blood gas analysis, 24-h modeling; details: Dex 1-1.5 mg/kg i.p. every two days, arterial blood after administration ended
Method: as §1, §2, §6, §7, §8

[6] = second half of table, head taken from the 24th table

For `C[C@@H]1C[C@H]2[C@@H]3CCC4=CC(=O)C=C[C@]4(C)[C@@]3(F)[C@@H](O)C[C@]2(C)[C@@]1(O)C(=O)CO` [Dex, dexamethasone, reference compound], the Lung coefficient [1] was 0.93±0.09%, the Spleen coefficient [1] was 0.41±0.06% and the BEect [2] was -8.50 ± 1.05 mmol/L. The “HCO3^-” value [2] was 27.82 ± 1.08 mmol/L, the PCO2 [2] was 33.60±1.92 mmHg and the Body weight ([3]; D1) was 19.92 ± 1.38 g. The Body weight ([3]; D7) was 20.02 ± 0.96 g, the Body weight ([3]; D14) was 19.24 ± 0.95 g and the Body weight ([3]; D21) was 18.90 ± 0.78 g. The Body weight ([3]; D28) was 18.56 ± 0.71 g, the Body weight ([3]; D35) was 18.36 ± 0.66 g and the “Body weight decreased by” value ([3]; day 1 to day 35) was 8.48%. The “IFN-γ in bronchoalveolar lavage fluid” value [4] was 66.48 ± 4.88 pg/mL, the “NF-κB in bronchoalveolar lavage fluid” value [4] was 818.72 ± 119.21 pg/mL and the “PPAR-γ in bronchoalveolar lavage fluid” value [4] was 232.49 ± 39.00 pg/mL. The “Percent reduction in IL-1β in bronchoalveolar lavage fluid with respect to the Model group” value [4] was 23.21%, the “Percent reduction in IL-2 in bronchoalveolar lavage fluid with respect to the Model group” value [4] was 7.98% and the “Percent reduction in IL-6 in bronchoalveolar lavage fluid with respect to the Model group” value [4] was 55.36%. For the same molecule, the “Percent reduction in NF-κB in bronchoalveolar lavage fluid with respect to the Model group” value [4] was 10.75%, the “Percent reduction in TGF-β in bronchoalveolar lavage fluid with respect to the Model group” value [4] was 15.87% and the “Percent reduction in TNF-α in bronchoalveolar lavage fluid with respect to the Model group” value [4] was 5.19%. For the same molecule, the “TGF-β in bronchoalveolar lavage fluid” value [4] was 159.28 ± 11.09 pg/mL, the “Percent reduction in IFN-γ in bronchoalveolar lavage fluid with respect to the Model group” value ([4]; negative = increase) was -100.30% and the “Percent reduction in PPAR-y in bronchoalveolar lavage fluid with respect to the Model group” value ([4]; negative = increase) was -7.09%. The “IL-1β in bronchoalveolar lavage fluid” value [4, 6] was 9.59 ± 0.90 pg/mL, the “IL-2 in bronchoalveolar lavage fluid” value [4, 6] was 41.67 ± 4.69 pg/mL and the “IL-6 in bronchoalveolar lavage fluid” value [4, 6] was 12.84 ± 1.02 pg/mL. The “TNF-α in bronchoalveolar lavage fluid” value [4, 6] was 53.21 ± 0.90 pg/mL, the BEect [5] was -9.20 ± 1.30 mmol/L and the “HCO3^-” value [5] was 28.28 ± 1.56 mmol/L. The PCO2 [5] was 32.52±2.73 mmHg.

Source: patent US20230210819A1, “USE OF BENZISOSELAZOLE DERIVATIVE FOR ANTI-CORONAVIRUS AND CONTROL OF INTERSTITIAL LUNG DISEASE (ILD) RELATED TO CORONAVIRUS” (SHANGHAI YUANXI MEDICINE CORP., priority 2020, published 2023)
